Results reported in US20240239794A1, “PKC-Theta Modulators” (Exscientia AI Limited, priority 2021, published 2024).
Structures can show the parent of a compound that is named as a salt. Where two headings read alike, the source gives them in different places.

Legend:
[1] = tested on: IL-2 secretion by human effector memory T cells (TEM); assay: Effector memory T cells IL-2 release assay; format: cell-based; details: T-cell, 24 h
Procedure: Test compound-mediated inhibition of NFκB signalling in T cells was assessed by quantification of the IL-2 secretion by human effector memory T cells (TEM) upon treatment and stimulation. Human TEM cells were isolated from buffy coats of healthy donors obtained from the French blood bank. First, peripheral blood mononuclear cells (PBMC) were purified from buffy coats diluted 1:1 with DPBS (Gibco, cat #14190-094) by Pancoll (PAN BIOTECH, cat #P04-60500) density gradient centrifugation at 400×g for 20 minutes. TEM cells were further enriched by negative immuno-magnetic cell sorting using a human CD4+ Effector Memory T Cell Isolation Kit (Miltenyi, cat #130-094-125) according to the manufacturer's instructions. Aliquots of 3×10E6 purified TEM cells were kept frozen in Cryo-SFM medium (PromoCell, cat #C-29912) in gas phase nitrogen until used. Cell purity was verified by flow cytometry analysis of 200 000 PFA-fixed cells previously labelled with monoclonal antibodies anti-CD4-PerCP-Cy5.5 (BD Pharmigen, cat #332772), anti-CD8-V500 (BD Biosciences, cat #561617), anti-CD14-Pacific Blue (Biolegend, cat #325616), anti-CD45 RA-FITC (Biolegend, cat #304106) and anti-CCR7-APC (in CD4+ Effector Memory T Cell Isolation Kit, Miltenyi, cat #130-094-125).
TEM cells were resuspended in complete RPMI medium composed of: RPMI 1640 (Gibco, cat #31870-025), 10% heat inactivated fetal bovine serum (Sigma, cat #F7524), 2 mM GlutaMAX (Gibco, cat #35050-038), 1 mM sodium pyruvate 100× (Gibco, cat #11360-039), 1% MEM non-essential amino acids solution (Gibco, cat #11140-035) and 100 U/mL penicillin, 100 µg/mL streptomycin (Sigma-Aldrich, cat #11074440001). 5,000 cells per well were plated onto flat clear bottom 384 well plates (Corning, cat #3770). 5,000 Dynabeads Human T-Activator CD3/CD28 (Gibco, cat #11132D) were added to each well for cell stimulation. Finally, 10 doses of test compound, originally prepared in DMSO by serial semi-log step dilution, were also added to cells in triplicate wells. Final DMSO concentration in wells was 0.1% in a total volume of 100 µL complete medium. Plates were incubated for 24 h at 37° C. in 5% CO2 atmosphere. After incubation, cell suspensions were centrifuged at 400×g and culture supernatants were recovered and stored at −80° C. Cell viability was assessed by flow cytometry after staining the cells with Fixable Viability Dye eFluor 780 (Invitrogen, cat #65-0865-14). IL-2 levels were determined in cell supernatants using an HTRF human IL-2 detection kit (Cisbio, cat #62HIL02PEH). IL-2 data at the different compound doses were fitted to a 4-parameter logistic curve to determine IC50 values, corresponding to the compound concentration leading to 50% reduction of the maximal IL-2 levels observed in each experiment. Viability data were analysed similarly to exclude cytotoxicity as a cause of IL-2 decrease (see Table 1).

[2] = biological target: Recombinant human PKC-delta (His-tagged 345-676) (Homo sapiens (Human), UniProt Q05655); assay: PKC-delta inhibition assay (HTRF KinEASE kit), PKC-theta/PKC-delta selectivity; format: biochemical; details: ratio; for PKC-theta/PKC-delta selectivity: PKC-theta over PKC-delta, HTRF assays; for PKC-theta/PKC-delta selectivity (binned): binned A to G
Procedure: (§1) PKC-theta and PKC-delta biochemical activities were measured using the PKC-theta HTRF KinEASEkit kit, according to manufacturer's instructions (Cisbio, catalogue number 61ST1PEJ). Briefly, the kinase buffer component of the kit was supplemented with 10 mM MgCl2, 1 mM DTT and 0.1% Tween 20. For the PKC-theta assay, STK substrate and ATP were added to provide a final assay concentration of 525 nM and 6.5 μM, respectively. For the PKC-delta assay, STK substrate and ATP were added to provide a final assay concentration of 243 nM and 5.7 μM, respectively. The streptavidin_XL665 and STK antibody-cryptate detection reagents were mixed according to the manufacturer's instructions. Test compounds were diluted in DMSO in a series of 10 semi-log step doses; 10 nL of each compound dose were dispensed in 384 well plates. Recombinant human PKC-theta (His-tagged 362-706) or PKC-delta (His-tagged 345-676) was diluted into kinase buffer to provide a final assay concentration of 10 ng/ml and added to the test compound for 30 minutes on ice. The reaction was started by addition of the substrate and ATP and incubated at 25° C. for 30 minutes or 20 minutes for the PKC-theta and PKC-delta assays, respectively. The detection reagents were added, and the plate was incubated in the dark for 2 hours. Fluorescence was measured on an Envision 2103 plate reader with optical setup for […] in the HTRF mode. The ratio of acceptor and donor emission signals was calculated for each well. Percent inhibition values were calculated from the HTRF ratios at different doses and fitted to a 4-parameter logistic curve to determine IC50 values (see Table 1).

[3] = biological target: Recombinant human PKC-theta (His-tagged 362-706) (Homo sapiens (Human), UniProt Q04759); assay: PKC-theta inhibition assay (HTRF KinEASE kit); format: biochemical; details: ATP 6.5 μM
Procedure: as §1

[4] = human CD4+ TEM cells, CD3/CD28 bead stimulation, binned A to G, read-out: PKC-theta IL2 pIC50 (binned) (converted)
[5] = human CD4+ TEM cells, CD3/CD28 bead stimulation, read-out: PKC-theta IL2 pIC50 (converted)
[6] = binned A to H, read-out: PKC-theta HTRF pIC50 (binned) (converted)
[7] = read-out: PKC-theta HTRF pIC50 (converted)

Sequence of Recombinant human PKC-theta (His-tagged 362-706) (Q04759 362-706): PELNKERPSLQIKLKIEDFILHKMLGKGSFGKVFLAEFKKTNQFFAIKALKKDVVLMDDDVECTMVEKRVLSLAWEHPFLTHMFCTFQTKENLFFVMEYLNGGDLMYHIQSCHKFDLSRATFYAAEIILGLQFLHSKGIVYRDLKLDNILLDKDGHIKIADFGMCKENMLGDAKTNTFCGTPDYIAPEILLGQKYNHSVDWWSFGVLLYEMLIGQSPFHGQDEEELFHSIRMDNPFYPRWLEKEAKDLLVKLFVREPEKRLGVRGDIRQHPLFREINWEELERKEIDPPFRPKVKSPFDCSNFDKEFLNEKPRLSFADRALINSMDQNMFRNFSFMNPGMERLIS
Sequence of Recombinant human PKC-delta (His-tagged 345-676) (Q05655 345-676): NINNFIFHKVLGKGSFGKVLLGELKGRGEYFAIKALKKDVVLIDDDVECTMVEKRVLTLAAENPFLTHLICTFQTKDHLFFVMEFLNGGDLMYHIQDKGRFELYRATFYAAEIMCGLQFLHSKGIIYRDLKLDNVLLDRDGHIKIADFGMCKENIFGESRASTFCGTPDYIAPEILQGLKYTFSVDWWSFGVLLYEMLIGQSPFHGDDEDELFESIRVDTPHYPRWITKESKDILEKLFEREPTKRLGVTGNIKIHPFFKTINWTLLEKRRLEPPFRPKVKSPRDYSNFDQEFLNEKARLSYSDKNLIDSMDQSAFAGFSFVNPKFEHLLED

Row | SMILES | IC50 [1, 4] | IC50 [1, 5] | PKC-theta/PKC-delta selectivity [2] | PKC-theta/PKC-delta selectivity (binned) [2] | PKC-theta HTRF pIC50 [3] | IC50 [3, 6] | IC50 [3, 7] | IC50 ([1]; Homo sapiens, read-out: PKC-theta IL2 pIC50 (binned) (converted)) | IC50 ([1]; Homo sapiens, read-out: PKC-theta IL2 pIC50 (converted))
1 | CC1(C)C(=O)Nc2nccc(-c3nn(C4(CO)CCNC4)c4ccccc34)c21 (stereo not shown) [Example 23] | 10 to 31.6 nM | 31.6 nM | 11 | D (D means a ratio of between 10 and 20) | 9.3 | ≤ 1 nM |  |  | 
2 | CC[C@]1(C)C(=O)Nc2nccc(-c3nn([C@@H]4CCNC[C@@H]4F)c4cc(F)ccc34)c21 (single isomer, unassigned) [Example 101] | 316 to 1000 nM | 631 nM | 42 | B (B means a ratio of between 30 and 50) |  | 10 to 31.6 nM | 25.1 nM |  | 
3 | CC1(C)C(=O)Nc2nccc(-c3ccn([C@H]4CC[C@H](N)CC4)n3)c21 [Example 14] | 31.6 to 100 nM | 50.1 nM | 3 | F (F means a ratio of between 1 and 5) | 8.5 | 3.16 to 10 nM |  |  | 
4 | CC1(C)C(=O)Nc2nccc(-c3nn(CC4(F)CCNCC4)c4ccccc34)c21 [Example 38] | 10 to 31.6 nM | 20 nM | 16 | D (D means a ratio of between 10 and 20) | 8.9 | 1 to 3.16 nM |  |  | 
5 | CC1(C)C(=O)Nc2nccc(-c3nn([C@H]4CCNC4)c4c(F)cccc34)c21 [Example 72] | 100 to 316 nM | 200 nM | 20 | D (D means a ratio of between 10 and 20) | 7.9 | 10 to 31.6 nM |  |  | 
6 | C[C@@]1(O)C(=O)Nc2nccc(-c3nn(C4(CC#N)CCC4)c4c(F)cccc34)c21 (single isomer, unassigned) [Example 58] | 10 to 31.6 nM | 10 nM | 18 | D (D means a ratio of between 10 and 20) |  | ≤ 1 nM | 0.501 nM |  | 
7 | CC1(C)C(=O)Nc2nccc(-c3nn([C@@H]4CCCNC4)c4ccccc34)c21 [Example 19] | 31.6 to 100 nM | 50.1 nM | 9 | E (E means a ratio of between 5 and 10) | 8.4 | 3.16 to 10 nM |  |  | 
8 | CC[C@@]1(C)C(=O)Nc2nccc(-c3nn([C@@H]4CCNC[C@@H]4F)c4ccc(F)cc34)c21 (single isomer, unassigned) [Example 97] | 31.6 to 100 nM | 39.8 nM | 23 | C (C means a ratio of between 20 and 30) |  | 1 to 3.16 nM | 2.51 nM |  | 
9 | CC1(C)C(=O)Nc2nccc(-c3nn(C4CCNCC4)c4cc(F)ccc34)c21 [Example 112] | 31.6 to 100 nM | 63.1 nM | 22 | C (C means a ratio of between 20 and 30) | 8.5 | 1 to 3.16 nM |  |  | 
10 | CCC1(O)C(=O)Nc2nccc(-c3nn([C@@H]4CCNC[C@@H]4F)c4ccccc34)c21 (stereo partly shown) [Example 56] | 31.6 to 100 nM | 50.1 nM | 15 | D (D means a ratio of between 10 and 20) | 8.7 | 1 to 3.16 nM |  |  | 
11 | CC1(O)C(=O)Nc2nccc(-c3cn(C4(CC#N)CCC4)c4ccccc34)c21 (stereo not shown) [Example 24] | 31.6 to 100 nM | 63.1 nM | 9 | E (E means a ratio of between 5 and 10) | 8.4 | 3.16 to 10 nM |  |  | 
12 | C[C@@]1(O)C(=O)Nc2nccc(-c3nn(C4(CC#N)CCC4)c4cc(F)ccc34)c21 (single isomer, unassigned) [Example 59] | 10 to 31.6 nM | 20 nM | 11 | D (D means a ratio of between 10 and 20) |  | ≤ 1 nM | 0.631 nM |  | 
13 | CCC1(O)C(=O)Nc2nccc(-c3nn(C4(CC#N)CCC4)c4ccccc34)c21 (stereo not shown) [Example 51] | 10 to 31.6 nM | 15.8 nM | 11 | D (D means a ratio of between 10 and 20) | 9.3 | ≤ 1 nM |  |  | 
14 | CCC1(C)C(=O)Nc2nccc(-c3nn([C@H]4CCNC4)c4ccccc34)c21 (stereo partly shown) [Example 53] | 31.6 to 100 nM | 100 nM | 13 | D (D means a ratio of between 10 and 20) | 8.3 | 3.16 to 10 nM |  |  | 
15 | CC1(C)C(=O)Nc2nccc(-c3nn([C@H]4CCNC4)c4ccccc34)c21 [Example 16, 3,3-dimethyl-4-[1-[(3S)-pyrrolidin-3-yl]indazol-3-yl]-1H-pyrrolo[2,3-b]pyridin-2-one Dihydrochloride] |  |  | 18 | D (D means a ratio of between 10 and 20) | 8.3 | 3.16 to 10 nM |  | 31.6 to 100 nM | 63.1 nM
16 | CC[C@]1(O)C(=O)Nc2nccc(-c3nn([C@@H]4CCNC[C@@H]4F)c4ccccc34)c21 (single isomer, unassigned) [Example 85] | > 1000 nM | 1260 nM | 10 | E (E means a ratio of between 5 and 10) |  | 31.6 to 100 nM | 50.1 nM |  | 
17 | CC1(O)C(=O)Nc2nccc(-c3cn([C@@H]4CCNC4)c4ccccc34)c21 (stereo partly shown) [Example 17] |  |  | 7 | E (E means a ratio of between 5 and 10) |  |  |  |  | 
18 | C[C@@]1(O)C(=O)Nc2nccc(-c3nn(C4CCNCC4)c4cc(C(F)(F)F)ccc34)c21 (single isomer, unassigned) [Example 42] | 316 to 1000 nM | 398 nM |  |  |  | 10 to 31.6 nM | 25.1 nM |  | 
19 | CC[C@]1(C)C(=O)Nc2nccc(-c3nn([C@H]4CCNC[C@H]4F)c4cc(F)ccc34)c21 (single isomer, unassigned) [Example 102] |  |  | 46 | B (B means a ratio of between 30 and 50) |  | 3.16 to 10 nM | 6.31 nM |  | 
